From US20040044043A1, “Thiazolidinedione derivative and its use as antidiabetic” (priority 2000, published 2004) come the findings set out here.

A short description of series [1]: Solid state stability of the drug substance (storage, HPLC assay). Format: physicochemical. The following applies: 1 month.
Protocol: The solid state stability of the drug substance was determined by storing approximately 1.0 g of the material in a glass bottle at a) 40° C./75% Relative Humidity (RH), open exposure, for 1 month and b) at 50° C., closed, for 1 month. The material was assayed by HPLC for final content and degradation products in both cases.
A short description of series [2]: Solubility in water (visual, confirmed by HPLC assay of a saturated solution). Format: physicochemical. The following applies: thermodynamic from solid. The method, then:
The visual solubility was confirmed by an HPLC assay of a saturated solution. Solubility: >100 mg/ml.

As for `CCS(=O)(=O)O.CN(CCOc1ccc(CC2SC(=O)NC2=O)cc1)c1ccccn1` (centres unmarked) [Ethanesulfonate, 5-[4-[2-(N-methyl-N-(2-pyridyl)amino)ethoxy]benzyl]thiazolidine-2,4-dione ethanesulfonate], the “Degradation (HPLC degradation products)” value in series [1] (40° C./75% RH, open exposure) is “No significant degradation observed”; in series [1] (50° C., closed), “No significant degradation observed”. Also, the “HPLC assay for final content” value came out at 99 % initial in series [1] (40° C./75% RH, open exposure) and 100 % initial in series [1] (50° C., closed). The same compound showed a solubility in series [2] of over 100 mg/mL.
